Measurements as given in patent US5747466A, “3-deoxy-3-descladinose derivatives of erythromycins A and B” (Abbott Laboratories, priority 1996, dated 1998).

Columns and labels:
Assay in all cases: In vitro antibacterial activity (MIC), agar dilution
[1] = test system: MYCOBACTERIUM SMEGMATIS ATCC 114; type: cell-based; details: M. smegmatis ATCC 114; BHI agar, 35-37 °C, 20-24 h
ESCHERICHIA COLI KNK 437 = type: cell-based; details: E. coli KNK 437; BHI agar, 35-37 °C, 20-24 h
[2] = test system: STAPHYLOCOCCUS AUREUS CMX 553; type: cell-based; details: S. aureus CMX 553; BHI agar, 35-37 °C, 20-24 h
[3] = test system: STREPTOCOCCUS PYOGENES PIU 2548; type: cell-based; details: S. pyogenes PIU 2548; BHI agar, 35-37 °C, 20-24 h
[4] = test system: ENTEROBACTER AEROGENES ATCC 13048; type: cell-based; details: E. aerogenes ATCC 13048; BHI agar, 35-37 °C, 20-24 h
[5] = test system: STAPHYLOCOCCUS AUREUS ATCC 6538P; type: cell-based; details: S. aureus ATCC 6538P; BHI agar, 35-37 °C, 20-24 h
[6] = test system: PSEUDOMONAS AERUGINOSA BMH10; type: cell-based; details: P. aeruginosa BMH10; BHI agar, 35-37 °C, 20-24 h
[7] = test system: STAPHYLOCOCCUS AUREUS A-5278; type: cell-based; details: S. aureus A-5278; BHI agar, 35-37 °C, 20-24 h
ESCHERICHIA COLI H560 = type: cell-based; details: E. coli H560; BHI agar, 35-37 °C, 20-24 h
PSEUDOMONAS CEPACIA 296I = type: cell-based; details: P. cepacia 296I; BHI agar, 35-37 °C, 20-24 h
M[…] ATCC 4698 = type: cell-based, Micrococcus luteus; details: M. luteus ATCC 4698; BHI agar, 35-37 °C, 20-24 h
Protocol: (§1) Representative compounds of the present invention were assayed in vitro for antibacterial activity as follows: Twelve petri dishes containing successive aqueous dilutions of the test compound mixed with 10 mL of sterilized Brain Heart Infusion (BHI) agar (Difco 0418-01-5) were prepared. Each plate was inoculated with 1:100 (or 1:10 for slow-growing strains, such as Micrococcus and Streptococcus) dilutions of up to 32 different microorganisms, using a Steers replicator block. The inoculated plates were incubated at 35°-37° C. for 20 to 24 hours. In addition, a control plate, using BHI agar containing no test compound, was prepared and incubated at the beginning and end of each test.
(§2) An additional plate containing a compound having known susceptibility patterns for the organisms being tested and belonging to the same antibiotic class as the test compound was also prepared and incubated as a further control, as well as to provide test-to-test comparability. Erythromycin A was used for this purpose.
(§3) After incubation, each plate was examined. The minimum inhibitory concentration (MIC) was defined as the lowest concentration of drug yielding no growth, a slight haze, or sparsely isolated colonies on the inoculum spot as compared to the growth control.

M[…] ATCC 9341 = type: cell-based, Micrococcus luteus; details: M. luteus ATCC 9341; BHI agar, 35-37 °C, 20-24 h
Protocol: as §1, §2, §3

EN[…] ATCC 8043 = type: cell-based, Enterococcus faecium; details: E. faecium ATCC 8043; BHI agar, 35-37 °C, 20-24 h
Protocol: as §1, §2, §3

[8] = test system: STREPTOCOCCUS PYOGENES 930; type: cell-based; details: S. pyogenes 930; BHI agar, 35-37 °C, 20-24 h
[9] = test system: STREPTOCOCCUS PYOGENES EES61; type: cell-based; details: S. pyogenes EES61; BHI agar, 35-37 °C, 20-24 h
[10] = test system: STAPHYLOCOCCUS EPIDERMIDIS 3519; type: cell-based; details: S. epidermidis 3519; BHI agar, 35-37 °C, 20-24 h
[11] = test system: PROVIDENCIA STUARTII CMX 640; type: cell-based; details: P. stuartii CMX 640; BHI agar, 35-37 °C, 20-24 h
[12] = test system: PSEUDOMONAS AERUGINOSA DPHD-5263; type: cell-based; details: P. aeruginosa DPHD-5263; BHI agar, 35-37 °C, 20-24 h
[13] = test system: ACINETOBACTER CALCOACETICUS CMX 669; type: cell-based; details: A. calcoaceticus CMX 669; BHI agar, 35-37 °C, 20-24 h
[14] = test system: KLEBSIELLA PNEUMONIAE ATCC 8045; type: cell-based; details: K. pneumoniae ATCC 8045; BHI agar, 35-37 °C, 20-24 h
[15] = test system: STAPHYLOCOCCUS AUREUS CMX 642A; type: cell-based; details: S. aureus CMX 642A; BHI agar, 35-37 °C, 20-24 h
[16] = test system: STAPHYLOCOCCUS AUREUS NCTC10649M; type: cell-based; details: S. aureus NCTC10649M; BHI agar, 35-37 °C, 20-24 h
[17] = test system: NOCARDIA ARSTEROIDES ATCC 9970; type: cell-based; details: Nocardia ATCC 9970; BHI agar, 35-37 °C, 20-24 h
[18] = test system: PSEUDOMONAS AERUGINOSA DPHD-2862; type: cell-based; details: P. aeruginosa DPHD-2862; BHI agar, 35-37 °C, 20-24 h
ESCHERICHIA COLI JUHL = type: cell-based; details: E. coli JUHL; BHI agar, 35-37 °C, 20-24 h

SMILES | minimum inhibitory concentration (MIC) [1] | minimum inhibitory concentration (MIC) (ESCHERICHIA COLI KNK 437) | minimum inhibitory concentration (MIC) [2] | minimum inhibitory concentration (MIC) [3] | minimum inhibitory concentration (MIC) [4] | minimum inhibitory concentration (MIC) [6] | minimum inhibitory concentration (MIC) [7] | minimum inhibitory concentration (MIC) (ESCHERICHIA COLI H560) | minimum inhibitory concentration (MIC) (PSEUDOMONAS CEPACIA 296I) | minimum inhibitory concentration (MIC) (M[…] ATCC 4698) | minimum inhibitory concentration (MIC) (M[…] ATCC 9341) | minimum inhibitory concentration (MIC) (EN[…] ATCC 8043) | minimum inhibitory concentration (MIC) [8] | minimum inhibitory concentration (MIC) [9] | minimum inhibitory concentration (MIC) [10] | minimum inhibitory concentration (MIC) [11] | minimum inhibitory concentration (MIC) [12] | minimum inhibitory concentration (MIC) [13] | minimum inhibitory concentration (MIC) [14] | minimum inhibitory concentration (MIC) [15] | other results
CC[C@H]1OC(=O)[C@H](C)C[C@H](C)[C@@H](O[C@@H]2O[C@H](C)C[C@H](N(C)C)[C@H]2O)[C@](C)(OC)C[C@@H](C)C(=O)[C@H](C)[C@@H](O)[C@]1(C)O [Ex. 1] | 100 | > 100 | 25 | 3.1 | > 100 | > 100 | > 100 | > 100 | > 100 | 6.2 | 3.1 | 25 | > 100 | 1.56 | 50 | > 100 | > 100 | > 100 | > 100 | 25 | minimum inhibitory concentration (MIC) [5]: 25; minimum inhibitory concentration (MIC) [16]: 6.2; minimum inhibitory concentration (MIC) [17]: 1.56; minimum inhibitory concentration (MIC) [18]: > 100; minimum inhibitory concentration (MIC) (ESCHERICHIA COLI JUHL): > 100
CC[C@H]1OC(=O)[C@H](C)C[C@H](C)[C@@H](O[C@@H]2O[C@H](C)C[C@H](N(C)C)[C@H]2O)[C@](C)(OC)C[C@@H](C)C(=NO)[C@H](C)[C@@H](O)[C@]1(C)O [Ex. 2] | 6.2 | > 100 | 12.5 | 0.56 | > 100 | > 100 | > 100 | > 100 | > 100 | 3.1 | 1.56 | 3.1 | > 100 | 0.78 | 12.5 | > 100 | > 100 | > 100 | > 100 | 12.5 | minimum inhibitory concentration (MIC) [16]: 12.5; minimum inhibitory concentration (MIC) [17]: 0.02; minimum inhibitory concentration (MIC) [18]: > 100; minimum inhibitory concentration (MIC) (ESCHERICHIA COLI JUHL): > 100
CC[C@H]1OC(=O)[C@H](C)C[C@H](C)[C@@H](O[C@@H]2O[C@H](C)C[C@H](N(C)C)[C@H]2O)[C@](C)(OC)C[C@@H](C)C(=O)[C@H](C)[C@H]2OC(=O)O[C@@]21C [Ex. 3] | 3.1 | > 100 | 3.1 | 0.78 | > 100 | > 100 | > 100 | > 100 | > 100 | 0.78 | 0.78 | 0.78 | > 100 | 0.2 | 6.2 | > 100 | > 100 | > 100 | > 100 | 3.1 | minimum inhibitory concentration (MIC) [5]: 6.2; minimum inhibitory concentration (MIC) [16]: 6.2; minimum inhibitory concentration (MIC) [17]: 0.2; minimum inhibitory concentration (MIC) [18]: > 100; minimum inhibitory concentration (MIC) (ESCHERICHIA COLI JUHL): > 100
